Laboratory results from patent publication US20240100013A1, “SOTAGLIFLOZIN FOR IMPROVING LEFT ATRIAL FUNCTION” (CHARITÉ-UNIVERSITÄTSMEDIZIN BERLIN, priority 2021, published 2024).

What was measured:
[1] = tested on: high-fat diet/streptozotocin-induced diabetic rats; conditions: via improved mitochondrial function; cited from earlier work
[2] = tested on: LA cardiomyocytes; experiment: Spontaneous SR Ca2+ release events (SCaEs) of isolated LA cardiomyocytes; assay type: cell-based, rat; conditions: baseline conditions; antioxidative treatment; both HFpEF groups
Source text: Cardiomyocyte isolation. LA and LV cardiomyocytes were isolated using enzymatic digestion as previously described in detail. See Bode D, Guthof T, Pieske B M, Heinzel F R, Hohendanner F: “Isolation of Atrial Cardiomyocytes from a Rat Model of Metabolic Syndrome-related Heart Failure with Preserved Ejection Fraction,” J Vis Exp 2018(137).
Solutions and chemicals. Chemicals were obtained from Sigma-Aldrich (St. Louis, MO, USA) unless noted otherwise. The dual SGLT1/2 inhibitor sotagliflozin was provided by Lexicon Pharmaceuticals (The Woodlands, TX, USA). Fluorescent dyes Fura-2 AM, Rhod-2 AM, MitoTracker red, MitoTracker green, TMRE and H2-DCF were obtained from Thermo Fisher Scientific (Waltham, MA, USA). Tyrode solution contained (in mM): 130 NaCL, 4 KCl, 2 CaCl, 1 MgCl2, 10 Glucose, 10 HEPES; pH adjusted to 7.4 with NaOH. LA cardiomyocytes were plated on laminin-coated glass coverslips. 20 mM caffeine was added to Tyrode solution to induce sarcoplasmic reticulum (SR) Ca^2+ release and obtain a measure of SR Ca^2+ content. […]
Ca^2+ measurements and sarcomere shortening. Radiometric Ca^2+ measurements (excitation: 340 nm and 385 nm, emission: 510±10 nm; [Ca^2+] expressed as the ratio R=F340/F380) were performed either with a CytoCypher MultiCell System (CytoCypher BV, Netherlands; FIGS. 1C-F, 2D-G, 4A-F) or an Axiovert 200 microscope (Zeiss, Oberkochen, Germany) fluorescence imaging assembly (FIGS. 2A-C, 2H-J, 3A-E, 6E-I). […] Experiments were conducted at 37° C. and CaT were recorded at steady state (following electric stimulation).
CaT and sarcomere shortening of LA and LV cardiomyocytes were recorded for 10 s at 3 Hz stimulation. See FIGS. 2D-G, 4A-F. Electric stimulation was turned off and spontaneous SR Ca^2+ release events (See Voigt N, Heijman J, Wang Q, Chiang D Y, Li N, Karck M, Wehrens X H T, Nattel S, Dobrev D: “Cellular and molecular mechanisms of atrial arrhythmogenesis in patients with paroxysmal atrial fibrillation,” Circulation 2014, 129(2):145-156) (SCaEs) immediately recorded for a duration of 10 s (FIG. 1C-F). […]

Structure (SMILES)	diabetes related atrial fibrillation [1]	occurrence of SCaEs [2]
OC[C@H]1O[C@@H](c2ccc(Cl)c(Cc3ccc(O[C@H]4CCOC4)cc3)c2)[C@H](O)[C@@H](O)[C@@H]1O [empagliflozin]	mitigate	
CC(=O)N[C@@H](CS)C(=O)O [acetylcysteine]		decreased
